Key:
[1] = tested on: SOD1 wt and SOD1G93A microglia; assay: LPS-triggered cytokine/chemokine release of primary microglia (ELISA); assay type: cell-based, mouse; details: 18 hours; for proinflammatory cytokine release: SOD1 wt and SOD1G93A microglia
Description: Primary cell cultures were prepared from whole brains of newborn (PO) mice and cultured in complete Dulbecco's modified Eagle's medium (DMEM, Invitrogen/Gibco, Karlsruhe, Germany), supplemented with 10% fetal calf serum (FCS, Invitrogen/Gibco), 100 U/ml penicillin and 100 μg/ml streptomycin (both Biochrom, Berlin, Germany) as previously described (Regen, et al. (2011) Brain, Behavior, and Immunity 25(5): 957-970). In brief, brains of newborn B6/SJL SOD1G93A and from B6/SJL SOD1wt, respectively, were liberated from meninges and blood vessels, washed with Hank's balanced salt solution (HBSS; Biochrom) and incubated with 2.5% trypsin (Biochrom) for 10 min at 37° C. The enzymatic reaction was stopped by addition of complete medium, supplemented with DNAse [5 mg/ml] (Worthington Biochemicals, Lakewood, N.J., USA). Remaining cell clusters were mechanically separated and the suspension was centrifuged at 900 rpm at 4° C. for 10 min. The supernatant was removed, cells were resuspended in fresh complete medium and seeded in 75 cm2, poly-L-lysine (PLL)-coated culture flasks. Immediately before being used, flasks were incubated with 100 μg/ml PLL (Invitrogen/Gibco) for 30 min at RT and excess of PLL was washed off by three rinses with sterile ddH2O. Subsequently, cultures were maintained in a humidified atmosphere with 5% CO2 at 37° C. On the next day, primary mixed-glial cultures were washed three times (PBS, Invitrogen/Gibco) and received fresh complete medium, the latter being repeated the following day. One week after seeding, microglial proliferation was stimulated by adding complete medium supplemented with 30% of L929-conditioned cell culture supernatant (see section “L929 Mouse Fibroblast Cultures” below). After another two days, microglial cells were harvested by shaking them off the astrocytic layer, taking advantage of their different adhesion properties. After washing with complete medium and counting, cells were plated in 96-well plates at a density of 15,000 cells/well for ELISA or were plated in 24-well plates at a density of 50,000 cells/well on PLL-coated coverslips for later immunocytochemical processing.
Primary cultures underwent five different general treatments: (a) Cells were left untreated in medium serving as controls. (b) Cells were stimulated with the TLR4 ligand LPS (E. coli R515; Axxora/Appotech TLR ligand set 1, APO.54N-018) for 18 hours at a final concentration of 10 ng/ml. (c) Cells underwent a treatment with Fasudil at 2 μM, 10 μM or 50 μM, respectively, for 18 hours. (d) Cells were stimulated with LPS, as described above, in the presence of various concentrations of Fasudil. (e) Cells were preincubated for 1 h, 4 h or 12 h, respectively with Fasudil at 50 μM, prior to a LPS challenge in the continued presence of Fasudil at 50 μM. Stimulation experiments were routinely carried out twice.
Following microglial stimulations and treatments, culture supernatants were collected and stored at −20° C. until assayed. Supernatants were analyzed for the release of cyto- and chemokines by commercial enzyme-linked immunosorbent assay (ELISA) test systems. Levels of IL-6, CCL2 (monocyte chemoattractant protein, MCP-1), CCL3 (macrophage inflammatory protein, MIP-1α) and CCL5 (regulated upon activation normal T-cell expressed and presumably secreted, RANTES) and CXCL1 (Chemokine (C-X-C motif) ligand 1) were determined using DuoSet ELISA Development Kits (R&D Systems). TNFα (tumor necrosis factor α) was determined using MAXTM ELISA kit (Biolegend). Absorbance was measured at 450 nm (with a 540 nm reference wavelength) using a microplate reader (Bio-Rad).

[2] = tested on: SOD1 G93A mouse model of ALS; assay: Survival (age at death) in SOD1 G93A mouse model of ALS; assay type: in vivo; details: for survival proportions over time: non-differentiated by gender
Description: High-copy B6SJL-Tg(SOD1*G93A)1Gur/J were obtained from Jackson Labs (Stock Number 002726; Bar Harbor, USA) that had originally been produced by Gurney et al. (Gurney, Pu et al. 1994). The colony was maintained by crossing C57BL/6 males harboring the transgene with wild-type SJL females. To verify presence of the transgene in the F1 progeny, tail biopsies were collected from 14-day-old pups and genotyped using PCR. At the age of 35-45 days mice were moved to the testing facility to acclimate to the new environment with a 12-h light/dark cycle before being assigned to a study.
At 50 days (presymptomatic, d50) or 80 days of age (symptomatic, d80) mice were separated into Fasudil-30 (Fas30)- and Fasudil-100 (Fas100)-Treatment or Vehicle Control (Veh) groups. Prior to any treatment, groups were constituted so as to minimize between-group variability by using the following criteria. Groups were balanced with respect to gender and body weight within gender. In addition, groups were age-matched and littermate-matched. […] The study was observer-blinded.
To reach sufficient CSF levels of Fasudil the inventors administered Fasudil (LC Labs, Woburn, USA; product number F-4660) at a low concentration of […] (Fas30) or at a high concentration of 50 mg (Fas100) in 100 ml drinking water. Control groups received the respective amount of isotonic drinking water termed as vehicle (Veh).
Chronic oral treatment with a low dose of Fasudil (F30) or a high dose of Fasudil (F100) was started either presymptomatically at day 50 or symptomatically at day 80 and continued until death.
Survival. Date and cause of death were recorded for each mouse. For humane reasons, animals are closely monitored and sacrificed as moribund prior to actual death using criteria for severe moribundity. To determine duration of survival reliably and humanely, the moribund state, defined as the inability of mice to right themselves 30 seconds after being placed on a side (a neurological score of 4) was used. The moribund mice were scored as “dead”, and were euthanized using carbon dioxide.
The data were then analyzed using Kaplan-Meier survival fit analysis with the Log-Rank and Wilcoxon tests for statistical significance. Cox proportional hazards analysis was also performed to determine hazard ratios and test for statistical significance of their differences using the Effect Likelihood Chi Square test. Statistical analyses were performed using Statistica 9.1 (StatSoft, Hamburg, Germany). P-values less than 0.05 were taken to be statistically significant.
The criteria to terminate the therapy study (later referred to as time of death) were fulfilled if the animals had reached the terminal neurological scoring or had lost a defined percentage of the maximal body weight. This time point then reflects the survival time of the animals whereas disease duration was measured from onset of disease until time of death.

[3] = LPS 10 ng/ml + Fasudil 50 μM, both genotypes

Question: O=S(=O)(c1cccc2cnccc12)N1CCCNCC1 [Fasudil, 1-(5-isoquinolinesulfonyl)homopiperazine] was tested. Which proinflammatory cytokine release ([1]; LPS 10 ng/ml + Fasudil 2 μM) did it give?
Answer: Its proinflammatory cytokine release is “not efficient in significantly reducing”.

Question: And the proinflammatory cytokine release ([1]; LPS 10 ng/ml + Fasudil 10 μM)?
Answer: Its proinflammatory cytokine release is “not efficient in significantly reducing”.

Question: And the “release of CCL3” value [1, 3]?
Answer: Its value is “markedly reduced”.

Question: And the “release of CXCL1” value [1, 3]?
Answer: The value was “markedly reduced”.

Question: What about the “release of IL-6” value [1, 3] of the same compound?
Answer: The value was “markedly reduced”.

Question: And the “release of RANTES” value [1, 3]?
Answer: The value was “markedly reduced”.

Question: What about the “release of TNFα” value [1, 3] of the same compound?
Answer: Its value is “markedly reduced”.

Question: What about the “change of CCL2 release” value ([1]; LPS 10 ng/ml + Fasudil 50 μM, relative to LPS alone (100%), slightly increased/unaffected) of the same compound?
Answer: The value was “+8.9%”.

Question: And the average survival ([2]; female, presymptomatic (d50) treatment, Fas30 (30 mg/kg/day in drinking water), control 130.4 days)?
Answer: The average survival was 141.8 days.

Question: And the survival ([2]; male, presymptomatic (d50), Fas30)?
Answer: Its survival is “trend in prolongation of survival”.

Question: And the “survival proportions over time” value ([2]; presymptomatic (d50), Fas30)?
Answer: The value was “profited significantly from the treatment”.

Question: What about the “survival proportions over time” value ([2]; symptomatic (d80), Fas30) of the same compound?
Answer: Its value is “did not show a statistically significant difference”.

Question: What about the “survival proportions over time” value ([2]; symptomatic (d80), Fas100 (100 mg/kg/day)) of the same compound?
Answer: Its value is “did not show a statistically significant difference”.

Question: And the survival effect ([2]; presymptomatic (d50), Fas100, compared with Fas30)?
Answer: The survival effect was “less prominent”.

Question: What about the survival ([2]; symptomatic treatment start, female or male group) of the same compound?
Answer: Its survival is “not able to prolong survival”.
